Experimental data: article PMC5681660, “Reduced hepatitis B and D viral entry using clinically applied drugs as novel inhibitors of the bile acid transporter NTCP” (Scientific Reports, 2017)
Counter-ions that a name gives are not always drawn.

Target: T1, human NTCP (Homo sapiens, UniProt Q14973)
T1 sequence (Q14973 1-349): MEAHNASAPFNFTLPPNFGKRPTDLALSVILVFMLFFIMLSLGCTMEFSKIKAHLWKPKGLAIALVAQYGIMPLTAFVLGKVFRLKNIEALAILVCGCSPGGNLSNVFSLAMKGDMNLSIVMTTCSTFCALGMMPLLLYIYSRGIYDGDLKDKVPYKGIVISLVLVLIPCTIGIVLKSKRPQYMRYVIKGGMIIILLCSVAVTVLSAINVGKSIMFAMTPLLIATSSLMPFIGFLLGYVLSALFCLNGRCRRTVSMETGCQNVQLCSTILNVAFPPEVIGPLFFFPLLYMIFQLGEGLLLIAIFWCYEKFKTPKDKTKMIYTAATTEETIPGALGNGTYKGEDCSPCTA
Assay: Screening taurocholate uptake assay (96-well, [14C]taurocholate, 10 µM drug)
Details: for B-score functional assay: screening taurocholate uptake, 10 µM drug

[1] = combined ranking of functional and binding screening assays
[2] = ranking over the functional and the binding screening assay

Molecule `C=CCN1CCCC1CNC(=O)c1cc2[nH]nnc2cc1OC.Cl` (stereo not shown) [Alizapride HCl] has a Ranking score [1] of 642.464 and a B-score functional assay of 2.201.
`NC(=O)NC1NC(=O)NC1=O` (stereo not shown) [Allantoin] showed a Ranking score [2] of 134.967 and a B-score functional assay of -2.549.
`Cc1[nH]cnc1CN1CCc2c(c3ccccc3n2C)C1=O` [Alosetron hydrochloride] gave a Ranking score [1] of 562.783 and a B-score functional assay of -0.019.
`C=CCc1ccccc1OCC(O)CNC(C)C` (stereo not shown) [Alprenolol hydrochloride] showed a Ranking score [1] of 1166.46 and a B-score functional assay (B-score) of 2.549.
For `C=CC[C@]1(O)CC[C@H]2[C@@H]3CCC4=CC(=O)CCC4=C3C=C[C@@]21C` [Altrenogest], the Ranking score [1] was 607.028 and the B-score functional assay was 0.332.
In the case of `CN(C)c1nc(N(C)C)nc(N(C)C)n1` [Altretamine], the Ranking score [1] is reported as 605.153 and the B-score functional assay is reported as -0.464.
Work on `COC(c1ccccc1)(c1ccccc1)[C@H](Oc1nc(C)cc(C)n1)C(=O)O` [Ambrisentan] yielded a Ranking score [1] of 629.311 and a B-score functional assay of -0.389.
For `CC(=O)OCC(=O)[C@@]12OC3(CCCC3)O[C@@H]1C[C@H]1[C@@H]3CCC4=CC(=O)C=C[C@]4(C)[C@@]3(F)[C@@H](O)C[C@@]12C` [Amcinonide], the Ranking score [1] was 530.494 and the B-score functional assay was 0.343.
`Nc1c2ccccc2nc2ccccc12` [Aminacrine] showed a Ranking score [1] of 608.609 and a B-score functional assay of -0.079.
`Cn1c(=O)c2[nH]cnc2n(C)c1=O` [Aminophylline] was tested, and the Ranking score [1] was 601.379 and the B-score functional assay was -0.16.
In the case of `CCC(C)(C)c1ccc(CC(C)CN2C[C@@H](C)O[C@@H](C)C2)cc1` (stereo partly shown) [Amorolfine hydrochloride], the Ranking score [1] is reported as 533.183 and the B-score functional assay is reported as -0.84.
For `Clc1ccc2c(c1)C(N1CCNCC1)=Nc1ccccc1O2` [Amoxapine], the Ranking score [1] was 604.055 and the B-score functional assay was 0.589.
With `CC1(C)S[C@@H]2[C@H](NC(=O)[C@H](N)c3ccc(O)cc3)C(=O)N2[C@H]1C(=O)O` [Amoxicillin] the Ranking score [2] was 277.274 and the B-score functional assay was -0.114.
With `C[C@@H]1[C@H](O)[C@@H](C)/C=C/C=C/C=C/C=C/C=C/C=C/C=C/[C@H](O[C@@H]2O[C@H](C)[C@@H](O)[C@H](N)[C@@H]2O)C[C@@H]2O[C@](O)(C[C@@H](O)C[C@@H](O)[C@H](O)CC[C@@H](O)C[C@@H](O)CC(=O)O[C@H]1C)C[C@H](O)[C@H]2C(=O)O` [Amphotericin B] the Ranking score [2] was 61.0819 and the B-score functional assay was -7.097.
`CC1(C)S[C@@H]2[C@H](NC(=O)[C@H](N)c3ccccc3)C(=O)N2[C@H]1C(=O)O` [Ampicillin trihydrate] gave a Ranking score [2] of 199.178 and a B-score functional assay of -0.594.
For `CCOC(=O)OC(C)OC1=C(C(=O)Nc2ccccn2)N(C)S(=O)(=O)c2ccccc21` (stereo not shown) [Ampiroxicam], the Ranking score [1] was 519.584 and the B-score functional assay was 0.098.
`CCCc1ncc(C[n+]2ccccc2C)c(N)n1` [Amprolium hydrochloride] showed a Ranking score [2] of 254.142 and a B-score functional assay of -0.209.
For `CC(C)(C#N)c1cc(Cn2cncn2)cc(C(C)(C)C#N)c1` [Anastrozole], the Ranking score [1] was 558.153 and the B-score functional assay was 0.728.
`O=C1c2c(O)cccc2Cc2cccc(O)c21` [Anthralin] showed a Ranking score [2] of 68.2788 and a B-score functional assay of 0.019.
`CCCCCC[C@H]1C(=O)O[C@H](C)[C@H](NC(=O)c2cccc(NC=O)c2O)C(=O)O[C@@H](C)[C@@H]1OC(=O)CC(C)C` [Antimycin A] showed a Ranking score [2] of 15.6525 and a B-score functional assay of -8.175.
`Cc1c(O)c(=O)n(-c2ccccc2)n1C` [Antipyrine, 4-hydroxy] was tested, and the Ranking score [2] was 262.114 and the B-score functional assay was -1.78.
`Cc1cc(=O)n(-c2ccccc2)n1C` [Antipyrine] showed a Ranking score [2] of 172.864 and a B-score functional assay of -1.958.
`C[C@@H](O[C@H]1OCCN(Cc2n[nH]c(=O)[nH]2)[C@H]1c1ccc(F)cc1)c1cc(C(F)(F)F)cc(C(F)(F)F)c1` [Aprepitant] showed a Ranking score [2] of 111.812 and a B-score functional assay of -3.7.
Molecule `O=C1CCc2ccc(OCCCCN3CCN(c4cccc(Cl)c4Cl)CC3)cc2N1` [Aripiprazole] has a Ranking score [1] of 580.393 and a B-score functional assay of 1.007.
With `CN1CC2c3ccccc3Oc3ccc(Cl)cc3C2C1` (stereo not shown) [Asenapine maleate] the Ranking score [2] was 127.491 and the B-score functional assay was -0.488.
Work on `COc1ccc(CCN2CCC(Nc3nc4ccccc4n3Cc3ccc(F)cc3)CC2)cc1` [Astemizole] yielded a Ranking score [2] of 231.853 and a B-score functional assay of -0.026.
`CC(C)c1c(C(=O)Nc2ccccc2)c(-c2ccccc2)c(-c2ccc(F)cc2)n1CC[C@@H](O)C[C@@H](O)CC(=O)O` [Atorvastatin] showed a Ranking score [2] of 231.469 and a B-score functional assay of -2.669.
`CC[C@H](C)[C@H]1O[C@]2(C=C[C@@H]1C)C[C@@H]1C[C@@H](C/C=C(\C)[C@@H](O[C@H]3C[C@H](OC)[C@@H](O[C@H]4C[C@H](OC)[C@@H](O)[C@H](C)O4)[C@H](C)O3)[C@@H](C)/C=C/C=C3\CO[C@@H]4[C@H](O)C(C)=C[C@@H](C(=O)O1)[C@]34O)O2` [Avermectin B1a] gave a Ranking score [2] of 51.7494 and a B-score functional assay of -1.314.
With `COc1ccc(C(=O)CC(=O)c2ccc(C(C)(C)C)cc2)cc1` [Avobenzone] the Ranking score [2] was 206.26 and the B-score functional assay was -0.955.
For `OC(c1ccccc1)(c1ccccc1)C1CCNCC1` [Azacyclonol], the Ranking score [1] was 525.026 and the B-score functional assay was -0.041.
`CC1(C)S[C@@H]2[C@H](NC(=O)[C@H](NC(=O)N3CCNC3=O)c3ccccc3)C(=O)N2[C@H]1C(=O)O` [Azlocillin sodium salt] was tested, and the Ranking score [2] was 129.337 and the B-score functional assay was -0.407.
Work on `CCOC(=O)OC(C)OC(=O)[C@@H]1N2C(=O)[C@@H](NC(=O)[C@H](N)c3ccccc3)[C@H]2SC1(C)C` (stereo partly shown) [Bacampicillin hydrochloride] yielded a Ranking score [1] of 500.635 and a B-score functional assay of -0.626.
`CN(C)C(=O)Oc1cc(OC(=O)N(C)C)cc(C(O)CNC(C)(C)C)c1.Cl` (stereo not shown) [Bambuterol hydrochloride] showed a Ranking score [1] of 562.701 and a B-score functional assay of -0.006.
Molecule `CCC(=O)OCC(=O)[C@@]1(OC(=O)CC)[C@@H](C)C[C@H]2[C@@H]3CCC4=CC(=O)C=C[C@]4(C)[C@@]3(Cl)[C@@H](O)C[C@@]21C` [Beclomethasone dipropionate] has a Ranking score [2] of 123.665 and a B-score functional assay of -3.95.
`CCC1(C)CC(=O)NC(=O)C1` [Bemegride] showed a Ranking score [2] of 76.1315 and a B-score functional assay of -2.979.
`C/C(=C(\CCOP(=O)(O)O)SC(=O)c1ccccc1)N(C=O)Cc1cnc(C)nc1N` [Benfotiamine] showed a Ranking score [1] of 532.072 and a B-score functional assay of -0.56.
`NC(CO)C(=O)NNCc1ccc(O)c(O)c1O` (stereo not shown) [Benserazide hydrochloride] was tested, and the Ranking score [1] was 520.826 and the B-score functional assay was -0.402.
In the case of `NC(=NCc1ccccc1)NC(=O)c1nc(Cl)c(N)nc1N` [Benzamil hydrochloride], the Ranking score [1] is reported as 519.299 and the B-score functional assay is reported as -0.089.
`CCc1oc2ccccc2c1C(=O)c1cc(Br)c(O)c(Br)c1` [Benzbromarone] was tested, and the Ranking score [2] was 148.825 and the B-score functional assay was -5.011.
With `CCOC(=O)c1ccc(N)cc1` [Benzocaine] the Ranking score [2] was 153.542 and the B-score functional assay was -1.326.
Work on `CN1[C@@H]2CC[C@H]1C[C@@H](OC(c1ccccc1)c1ccccc1)C2` [Benztropine mesylate] yielded a Ranking score [1] of 529.655 and a B-score functional assay of -0.008.
`CN(C)CCCOc1nn(Cc2ccccc2)c2ccccc12` [Benzydamine hydrochloride] was tested, and the Ranking score [1] was 571.97 and the B-score functional assay was 0.075.
`C/C=C(\C)C(=O)O[C@H]1[C@H](OC(C)=O)[C@@]2(CO)C(CC1(C)C)C1=CC[C@@H]3[C@@]4(C)CC[C@H](O[C@@H]5O[C@H](C(=O)O)[C@@H](O[C@@H]6O[C@H](CO)[C@@H](O)[C@H](O)[C@H]6O)[C@H](O)[C@H]5O[C@@H]5O[C@H](CO)[C@@H](O)[C@H](O)[C@H]5O)[C@H](CO)C4CC[C@@]3(C)[C@@]1(C)C[C@H]2O` (stereo partly drawn) [Beta-Escin] was tested, and the Ranking score [2] was 8.485 and the B-score functional assay was -8.059.
Molecule `CNCCc1ccccn1.CS(=O)(=O)O.CS(=O)(=O)O` [Betahistine mesylate] has a Ranking score [2] of 145.348 and a B-score functional assay of -5.129.
`CC(C)NCC(O)COc1ccc(CCOCC2CC2)cc1` (stereo not shown) [Betaxolol hydrochloride] was tested, and the Ranking score [1] was 583.493 and the B-score functional assay was 0.038.
For `CC(O)(CS(=O)(=O)c1ccc(F)cc1)C(=O)Nc1ccc(C#N)c(C(F)(F)F)c1` (stereo not shown) [Bicalutamide], the Ranking score [2] was 258.616 and the B-score functional assay was -0.361.
`c1ccc(-c2ccc(C(c3ccccc3)n3ccnc3)cc2)cc1` (stereo not shown) [Bifonazole] gave a Ranking score [2] of 164.499 and a B-score functional assay of -2.294.
Work on `O=C(O)CCCC[C@@H]1SC[C@@H]2NC(=O)N[C@@H]21` [Biotin] yielded a Ranking score [2] of 66.9328 and a B-score functional assay of -2.274.
Molecule `OC(CCN1CCCCC1)(c1ccccc1)C1CC2C=CC1C2` (stereo not shown) [Biperiden hydrochloride] has a Ranking score [1] of 526.369 and a B-score functional assay of -0.229.
With `CC(=O)Oc1ccc(C(c2ccc(OC(C)=O)cc2)c2ccccn2)cc1` [Bisacodyl] the Ranking score [2] was 63 and the B-score functional assay was -3.114.
In the case of `CC(C)NCC(O)COc1ccc(COCCOC(C)C)cc1` (stereo not shown) [Bisoprolol fumarate], the Ranking score [2] is reported as 263.481 and the B-score functional assay is reported as 0.023.
Molecule `CN(Cc1cc(Br)cc(Br)c1N)C1CCCCC1` [Bromhexine hydrochloride] has a Ranking score [2] of 149.492 and a B-score functional assay of -0.767.
`CN(C)CCC(c1ccc(Br)cc1)c1ccccn1` (stereo not shown) [Brompheniramine maleate] was tested, and the Ranking score [1] was 520.776 and the B-score functional assay was -0.661.
